In one assay the target is T1, 5-HT1A receptors (Rattus norvegicus, UniProt P19327).
T1 sequence (P19327 1-422): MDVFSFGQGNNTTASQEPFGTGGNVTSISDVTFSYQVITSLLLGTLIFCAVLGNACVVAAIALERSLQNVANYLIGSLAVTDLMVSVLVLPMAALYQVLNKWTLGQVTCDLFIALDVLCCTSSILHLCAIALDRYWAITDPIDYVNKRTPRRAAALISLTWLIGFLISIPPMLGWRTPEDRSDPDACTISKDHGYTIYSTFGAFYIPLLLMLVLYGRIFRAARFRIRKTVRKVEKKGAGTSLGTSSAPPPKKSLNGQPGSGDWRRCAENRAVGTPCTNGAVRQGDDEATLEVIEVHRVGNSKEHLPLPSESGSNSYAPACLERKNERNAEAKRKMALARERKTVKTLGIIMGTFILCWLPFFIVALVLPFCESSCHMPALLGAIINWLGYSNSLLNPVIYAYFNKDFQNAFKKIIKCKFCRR
In words: inhibition of [3H]8-OH-DPAT binding to 5-HT1A receptors in vitro. Details: species or system rat (male Sprague-Dawley, hippocampal tissue). The note with it: rat hippocampus; for inhibition at 1 µM: 10^-6 M, [3H]8-OH-DPAT, read-out: % displacement at 10^-6 M, 5-HT1A; for Ki: [3H]8-OH-DPAT 2 nM, 25° C., 30 min.

For the next assay, the target named is T2, α2A-adrenoceptors (Homo sapiens, UniProt P08913).
T2 construct: Human cerebral cortex obtained at post-mortem; from tissue; host or cells: human cerebral cortex, post-mortem
T2 sequence (P08913 1-465): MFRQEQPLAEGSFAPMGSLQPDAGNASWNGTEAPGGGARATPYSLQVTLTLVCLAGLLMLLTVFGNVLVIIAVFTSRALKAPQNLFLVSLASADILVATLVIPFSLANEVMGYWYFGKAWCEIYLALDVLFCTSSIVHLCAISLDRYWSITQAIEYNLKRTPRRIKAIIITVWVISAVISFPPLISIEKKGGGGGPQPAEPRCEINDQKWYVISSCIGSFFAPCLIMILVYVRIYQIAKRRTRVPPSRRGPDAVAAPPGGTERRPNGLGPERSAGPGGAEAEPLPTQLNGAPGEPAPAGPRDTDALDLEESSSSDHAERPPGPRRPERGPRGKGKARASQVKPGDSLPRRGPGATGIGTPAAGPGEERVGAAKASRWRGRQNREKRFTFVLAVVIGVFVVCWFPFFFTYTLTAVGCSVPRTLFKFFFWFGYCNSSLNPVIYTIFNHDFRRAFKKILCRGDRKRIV
In words: inhibition of tritiated RX 821002 binding to α2A-adrenoceptors in vitro. Details: species or system human (cerebral cortex post-mortem). As to conditions: human cerebral cortex; for inhibition at 1 µM: 10^-6 M, [3H]RX 821002, read-out: % displacement at 10^-6 M, α2A. The procedure:
Human cerebral cortex obtained at post-mortem was homogenised in ice-cold 0.25M sucrose (1:30 w/v) and centrifuged at 1,000 g at 4° C. for 12 minutes. The supernatant was stored on ice and the pellet was rehomogenised in 0.25M sucrose (1:15 w/v) and centrifuged at 850 g at 4° C. for 12 minutes. Combined supernatants were diluted with 5 mM Tris-HCl (pH 7.5) containing 5 mM ethylenediamine tetraacetic acid (EDTA), readjusted to pH 7.5 (at 25° C.) with 1M sodium hydroxide to 1:80 w/v, and centrifuged at 11,000 g at 4° C. for 10 minutes. The resulting pellet was resuspended in 50 mM Tris-HCl (pH 7.5) containing 5.68 mM L-ascorbic acid and 0.5 mM EDTA, readjusted to pH 7.5 (at 25° C.) with 1M sodium hydroxide to 1:80 w/v, and centrifuged at 11,000 g for 10 minutes. The pellet was stored at -80° C. On the day of the assay the pellet was thawed, resuspended in 50 mM Tris-HCl (pH 7.5) containing 5.68 mM L-ascorbic acid and 5 mM EDTA to 1:80 w/v and centrifuged at 11,000 g for 10 minutes. The final pellet was resuspended in 50 mM Tris-HCl (pH 7.5) containing 5.68 mM L-ascorbic acid and 5 mM EDTA (equivalent to 25 mg wet weight of tissue/ml).
Aliquots (400 μl; equivalent to 10 mg wet weight of tissue/tube) of this suspension were added to tubes containing the ligand (50 μl; 0.2 nM) and distilled water (50 μl; total binding) or phentolamine (50 μl; 50 μM; non-specific binding) or test compound (50 μl; at a single concentration of 10^-6 M or at 10 concentrations ranging from 10^-11 -10^-3 M). The ligand was tritiated RX 821002 (2-(2-methoxy-1,4-[6,7(n)-^3 H]benzodioxan-2-yl)-2-imidazoline) and the mixture was incubated at 0° C. for 75 minutes before the incubation was terminated by rapid filtration.
The filters were washed with ice-cold Tris-HCl buffer and dried. The filters were punched out into vials, scintillation fluid added and radioactivity determined by liquid scintillation counting. The percentage displacement of specific binding of the tritiated ligand was calculated for the single concentration (10^-6 M) of test compound. Displacement curves were then produced for those compounds which displaced ≥50% of specific binding of the tritiated ligand at 10^-6 M using a range of concentrations of the compound. The concentration which gave 50% inhibition of specific binding (IC50) was obtained from the curve. The inhibition coefficient Ki was then calculated using the formula [formula] in which [ligand] is the concentration of the tritiated ligand used and KD is the equilibrium dissociation constant for the ligand.

Another assay concerns the target T3, α2D-adrenoceptors (Rattus norvegicus, UniProt P22909).
T3 sequence (P22909 1-465): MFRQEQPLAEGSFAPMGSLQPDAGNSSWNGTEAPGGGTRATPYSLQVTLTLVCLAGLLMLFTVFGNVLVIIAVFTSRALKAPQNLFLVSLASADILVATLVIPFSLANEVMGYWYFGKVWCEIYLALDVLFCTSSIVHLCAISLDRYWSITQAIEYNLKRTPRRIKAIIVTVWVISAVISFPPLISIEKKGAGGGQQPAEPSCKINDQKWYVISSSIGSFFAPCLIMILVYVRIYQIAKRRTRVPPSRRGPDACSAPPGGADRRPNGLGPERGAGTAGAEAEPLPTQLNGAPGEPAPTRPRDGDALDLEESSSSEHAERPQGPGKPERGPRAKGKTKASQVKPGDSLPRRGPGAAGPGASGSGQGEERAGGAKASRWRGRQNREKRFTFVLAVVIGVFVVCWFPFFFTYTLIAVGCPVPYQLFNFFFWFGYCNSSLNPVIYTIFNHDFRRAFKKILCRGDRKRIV
In words: inhibition of tritiated idazoxan binding to α2D-adrenoceptors in vitro. Details: species or system rat (male Charles River CD, frontal cortical tissue). As to conditions: rat frontal cortex; for inhibition at 1 µM: 10^-6 M, [3H]idazoxan, read-out: % displacement at 10^-6 M, α2D; for Ki: [3H]idazoxan 1 nM, 0° C., 75 min.

For a further assay, the system named is α1-adrenoceptors. In words: inhibition of 7-methoxy-[3H]prazosin binding to α1-adrenoceptors in vitro. Details: species or system rat (male Charles River CD, whole cortical tissue). The note with it: rat whole cortex, 30 min; for % displacement at 10^-6 M, α1: 7-methoxy-[3H]prazosin, 1 µM; for Ki: 7-methoxy-[3H]prazosin 0.1 nM, 30° C. How it is done: Whole cortical tissue from the brains of male Charles River CD rats weighing between 150-250 g were homogenised in ice-cold 50 mM Tris-HCl, pH 7.6 (at 25° C.; 1:40 w/v) and centrifuged at 1000 g at 4° C. for 10 minutes. The supernatant was centrifuged at 30,000 g at 4° C. for 10 minutes. The pellet was rehomogenised in 50 mM Tris-HCl, pH 7.6 (1:40 w/v) and centrifuged at 30,000 g at 4° C. for 10 minutes. The final pellet was resuspended in 50 mM Tris-HCl, pH 7.6 (equivalent to 12.5 mg wet weight of tissue/ml) and used immediately in the binding assay. Aliquots (400 μl; equivalent to 5 mg wet weight of tissue/tube) of this suspension were added to tubes containing the ligand (50 μl; 0.1 nM) and distilled water (50 μl; total binding) or phentolamine (50 μl; 5 μM; non-specific binding) or test compound (50 μl; at a single concentration of 10^-6 M or at 10 concentrations ranging from 10^-11 -10^-3 M). The ligand was 7-methoxy-[^3 H]prazosin and the mixture was incubated at 30° C. for 30 minutes before the incubation was terminated by rapid filtration. The filters were washed with ice-cold Tris-HCl buffer and dried. The filters were punched out into vials, scintillation fluid added and radioactivity determined by liquid scintillation counting. The percentage displacement of specific binding of the tritiated ligand was calculated for the single concentration (10^-6 M) of test compound. […] The concentration which gave 50% inhibition of specific binding (IC50) was obtained from the curve. The inhibition coefficient Ki was then calculated using the formula [formula] in which [ligand] is the concentration of the tritiated ligand used and KD is the equilibrium dissociation constant for the ligand.

The next assay deals with D2 dopamine receptors (Rattus norvegicus, UniProt P61169). Nature of the assay: inhibition of tritiated (S)-sulpiride binding to D2 dopamine receptors in vitro. Details: species or system rat (male Charles River CD, striatal tissue). As to conditions: rat striatum, tritiated (S)-sulpiride 1 nM, 4° C., 40 min.

As a reminder, the Ki is the dissociation constant of the complex between target and ligand, obtained from inhibition or displacement.

Where a name gives a salt, the structure may show the parent alone.

D2 dopamine receptors, sequence (P61169 whole entry): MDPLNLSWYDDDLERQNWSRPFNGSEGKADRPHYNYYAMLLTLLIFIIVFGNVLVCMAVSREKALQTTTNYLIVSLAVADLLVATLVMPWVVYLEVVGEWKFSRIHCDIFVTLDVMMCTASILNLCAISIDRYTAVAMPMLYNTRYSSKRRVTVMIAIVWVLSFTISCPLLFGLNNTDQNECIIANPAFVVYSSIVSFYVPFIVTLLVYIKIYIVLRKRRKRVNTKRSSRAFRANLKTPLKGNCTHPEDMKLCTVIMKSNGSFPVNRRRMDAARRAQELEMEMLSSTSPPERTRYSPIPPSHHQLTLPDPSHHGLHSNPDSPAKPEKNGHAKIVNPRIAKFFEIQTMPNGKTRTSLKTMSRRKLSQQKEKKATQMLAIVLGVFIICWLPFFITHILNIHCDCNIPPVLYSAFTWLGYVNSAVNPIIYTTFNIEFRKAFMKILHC
Protocol for 5-HT1A receptors: Hippocampal tissue from the brains of male Sprague-Dawley rats (Charles River; weight range 150-250 g) was homogenised in ice-cold 50 mM Tris-HCl buffer (pH 7.7 when measured at 25° C., 1:40 w/v) and centrifuged at 30,000 g at 4° C. for 10 minutes. The pellet was rehomogenised in the same buffer, incubated at 37° C. for 10 minutes and centrifuged at 30,000 g at 4° C. for 10 minutes. The final pellet was resuspended in 50 mM Tris-HCl buffer (pH 7.7) containing 4 mM CaCl2. 0.1% L-ascorbic acid and 10 μM pargyline hydrochloride (equivalent to 6.25 mg wet weight of tissue/ml) and used immediately in the binding assay. Aliquots (400 μl; equivalent to 2.5 mg wet weight of tissue/tube) of this suspension were added to tubes containing the ligand (50 μl; 2 nM) and distilled water (50 μl; total binding) or 5-HT (50 μl; 10 μM; non-specific binding) or test compound (50 μl; at a single concentration of 10^-6 M or at 10 concentrations ranging from 10^-11 -10^-3 M). The ligand was [^3 H]8-hydroxy-2-(dipropylamino)tetralin ([^3 H]8-OH-DPAT) and the mixture was incubated at 25° C. for 30 minutes before the incubation was terminated by rapid filtration.

As for `Nc1c(CN2CCN(c3cccc4c3OCCO4)CC2)c(C2CC2)nn1-c1ccccc1Cl` [Example 33, 5-Amino-4-[4-(1,4-benzodioxan-5-yl)piperazin-1-ylmethyl]-1-(2-chlorophenyl)-3-cyclopropylpyrazole], the inhibition at 1 µM at 5-HT1A receptors was 98%; on α2A-adrenoceptors, 100%; on α2D-adrenoceptors, 96%. Also, the “% displacement at 10^-6 M, α1” value in the assay with α1-adrenoceptors was 94%. Also, at D2 dopamine receptors, the Ki was above 500 nM.
Consider `Cn1nc(C2CC2)c(CN2CCN(c3cccc4c3OCCO4)CC2)c1N` [Example 25, 5-Amino-4-[4-(1,4-benzodioxan-5-yl)piperazin-1-ylmethyl]-3-cyclopropyl-1-methylpyrazole], for which the Ki at 5-HT1A receptors was 15 nM; at α2A-adrenoceptors ([3H]RX 821002 0.2 nM, 0° C., 75 min) it was 14 nM; at α2D-adrenoceptors, 35 nM; on α1-adrenoceptors, 126 nM; at D2 dopamine receptors, above 500 nM.
On to `CCCn1c(N)c(CN2CCN(c3cccc4c3OCCO4)CC2)c(=O)n1-c1ccccc1` [Example 5, 3-Amino-4-[4-(1,4-benzodioxan-5-yl)piperazin-1-ylmethyl]-1-phenyl-2-propyl-3-pyrazolin-5-one], for which the inhibition constant Ki at 5-HT1A receptors stood at 16 nM; at α2D-adrenoceptors, 121 nM; on α1-adrenoceptors, 41 nM; on D2 dopamine receptors, 176 nM. Also, on α2A-adrenoceptors, the inhibition at 1 µM amounted to 73%.
As for `Cn1nc(C2CC2)c(CN2CCN(c3cccc4c3OCCO4)CC2)c1N` [Example 18, 5-Amino-4-[4-(1,4-benzodioxan-5-yl)piperazin-1-ylmethyl]-3-cyclopropyl-1-methylpyrazole 2.3 hydrochloride], the figures for the inhibition constant (Ki) on 5-HT1A receptors, at α2D-adrenoceptors and on α1-adrenoceptors (hydrochloride) were 27 nM, 69 nM and 204 nM, respectively. In addition, the inhibition at 1 µM on α2A-adrenoceptors was found to be 98%.
`C=CCn1c(-c2cccnc2)nn(CCN2CCN(c3cccc(C)c3C)CC2)c1=O` [Example 65, 4-Allyl-2-{2-[4-(2,3-dimethylphenyl)piperazin-1-yl]ethyl}-5-(3-pyridyl)-1,2,4-triazol-3(2H,4H)-one 2.8 hydrochloride]: the inhibition at 1 µM on 5-HT1A receptors is 63%. In addition, the Ki at α2D-adrenoceptors and on D2 dopamine receptors was above 500 nM each time. The “% displacement at 10^-6 M, α1” value in the assay on α1-adrenoceptors was 56%.
As to `C=CCn1c(-c2cccnc2)nn(CCCN2CCN(c3ccccc3OC)CC2)c1=O.Cl.Cl.Cl` [Example 72, 4-Allyl-2-{3-[4-(2-methoxyphenyl)piperazin-1-yl]propyl}-5-(3-pyridyl)-1,2,4-triazol-3(2H,4H)-one trihydrochloride], the Ki at 5-HT1A receptors, on α2D-adrenoceptors and on D2 dopamine receptors was above 500 nM throughout. Further, in the assay on α1-adrenoceptors, the “% displacement at 10^-6 M, α1” value turned out to be 91%.
Regarding `C=CCn1c(-c2cccnc2)nn(CN2CCN(c3ccccc3OC)CC2)c1=O` [Example 63, 4-Allyl-2-[4-(2-methoxyphenyl)piperazin-1-ylmethyl]-5-(3-pyridyl)-1,2,4-triazol-3(2H,4H)-one], the inhibition at 1 µM came to 74% on 5-HT1A receptors and 66% on α2D-adrenoceptors. Further, the inhibition constant Ki on α1-adrenoceptors was above 500 nM; on D2 dopamine receptors, 193 nM.
Regarding `C=CCn1c(-c2cccs2)nn(CN2CCN(c3ccccc3OC)CC2)c1=S` [Example 60, 4-Allyl-2-[4-(2-methoxyphenyl)piperazin-1-ylmethyl]-5-(2-thienyl)-1,2,4-triazole-3(2H,4H)-thione], the Ki on 5-HT1A receptors was determined as 138 nM; on α2D-adrenoceptors, 82 nM; on α1-adrenoceptors, 159 nM; at D2 dopamine receptors, 155 nM.
In the case of `C=CCn1c(-c2ccc(Cl)cc2)nn(CN2CCN(c3ccccc3OC)CC2)c1=S` [Example 62, 4-Allyl-5-(4-chlorophenyl)-2-[4-(2-methoxyphenyl)piperazin-1-ylmethyl]-1,2,4-triazole-3(2H,4H)-thione], the inhibition at 1 µM on 5-HT1A receptors was determined as 77%; on α2D-adrenoceptors, 68%. The “% displacement at 10^-6 M, α1” value with α1-adrenoceptors came to 59%. In addition, the inhibition constant Ki at D2 dopamine receptors turned out to be 201 nM.

The record behind these values is patent US6114334A, “Piperazine derivatives as therapeutic agents” (Knoll Aktiengesellschaft, priority 1995, dated 2000).
